These results are taken from US20170266266A1, “Functions of 55 Newfound Proteins and Their Medicinal Application in the Treatment and Prevention of Disease” (priority 2012, published 2017).

For data set [1], the system named is fatty streak lesions in rabbits on high fat diet. The data set is classed as in vivo, rabbit. The following applies: for TC/HDL-C: Atorvastatin group. The method, then: The rabbits were fasted for 12 hrs before the beginning of the experiments. Blood parameters were then tested as the normal level of plasma indicators. A total of 52 rabbits were purchased at different time, four of them were used as normal control and fed with normal diet the whole time during the experiments. […] Plasma concentrations of total cholesterol (TC), […] (TG), low density lipoprotein-cholesterol (LDL-C), very low density lipoprotein-cholesterol (VLDL-C), high density lipoprotein-cholesterol (HDL-C) were quantified by enzymatic assays. TC/HDL-C or ([…] ratios were then determined. Animals were sacrificed under deep anesthesia with sodium pentobarbital 25 mg/kg IV. The entire aorta from the aortic valve to the iliac bifurcation was removed from each rabbit and opened longitudinally. […] Atheromatous lesions were measured without staining Atheromatous lesions were manually traced in the photographs, and the percent area of the atheromatous lesions was calculated. Sample of aorta from animals were homogenated. And the content of lipid was determined.

Data set [2] relates to atherosclerosis in ApoE knock out mouse on high fat diet. The text has this:
10 ApoE ko mice were fed with regular chow diet and used as negative control group. 50 ApoE ko mice were fed with high fat diet (35% kcal fat, 1% cholesterol) for 8 weeks, and then the plasma samples were collected for lipid profile measurement before the treatment. 50 ApoE ko mice were assigned into 5 groups based on the fasting overnight plasma TC and HDL level.
5.2. Study Timeline: • 23 Dec. 2011: 60 ApoE mice arrived at chempartner and were housed in the animal facility in the building #3 for the acclimation. • 6 Jan. 2012: Measured the body weight for each mouse. 50 mice were fed with high fat diet and 10 mice were fed with normal chow diet. • 2 Mar. 2012: All mice were fasted over night and plasma samples (about 300 ul whole blood) were collected for lipid profile measurement before treatment with RAAS antibody. • 19 Mar. 2012 to 6 Apr. […] 2012: All mice were fasted over night and plasma sample for each mouse (about 300 ul whole blood) was collected for lipid profile measurement after 16 weeks treatment. Blood glucose was also measured for each mouse. • 9 Jul. 2012: The study was terminated after 16 weeks treatment. Measure BW, sacrificed each mouse, dissected the aorta, heart, liver and kidney and fixed them in 4% PFA.
Antibody products were administrated by intraperitoneal injection every two days (Monday, Wednesday, and Friday). and the positive compound was administered by p.o every day.
The body weight was weighed weekly during the period of treatment. The fasting overnight blood glucose was measured at the end of study by Roche glucometer.
About 300 ul of blood sample was collected from the orbital vein for each mouse and centrifuged at 7000 rpm for 5 min at 4E and the plasma lipid profile was measured by Roche Modular automatic biochemistry analyzer in DaAn Medical Laboratory
After RAAS antibody products treatment for 16 weeks, all mice were sacrificed. Measured body weight and collected blood sample for each mouse. Weighed liver weight and saved a tiny piece of liver into 4% paraformaldehyde (PFA) fixation solution for further analysis. At same time, take the photos with heart, lung, aortas and two kidneys.
5.8. Oil Red Staining Procedure: • 1. Sacrificed the mice and dissected the heart, aorta, and arteries under dissecting microscope. • 2. Briefly wash with PBS and fixed in 4% paraformaldehyde (PFA) overnight at 4[…]. • 3. Rinse with 60% isopropanol • 4. Stain with freshly prepared Oil Red O working solution 10 min. • 1). Oil red O stock stain: 0.5% powder in isopropanol • 2). Working solution: dilute with distilled water (3:2) and filter with membrane (0.22 um) • 5. Rinse with 60% isopropanol 10 second. • 6. Dispel the adherent bit fat outside of the aorta under the dissecting microscope. • 7. Cut the vascular wall gently and keep the integrated arteries using the micro scissors. • 8. Unfold the vascular inner wall with the cover slides and fix it by water sealing tablet.
Scanning the glasses slides with the Aperio ScanScope system and analyze with the image proplus software to measure the area of atherosclerotic plaque lesion. The results were expressed as the percentage of the total aortic surface area covered by lesions. The operation procedure of software was briefly described as follow: Converted the sys version photos into JPG version, then calibrated it and subsequently selected the red regions and then calculate the total area automatically by image proplus software.
The results were expressed as the Mean±SEM and statistically evaluated by student's t-test.

The subject of data set [3] is atherosclerosis in New Zealand white rabbit on high fat diet. The following applies: rabbit, in vivo. The method, then: New Zealand rabbits were adopted in this animal study and divided into 5 groups. They were high dose, medium dose and low dose of treatment, positive and vehicle control. The treatment groups were given APOAI via auricular vein once a week. […] Positive controls were given Liptor daily by p.o. with a dose of 0.45 mg/kg body weight. […] The study duration was 19 weeks. At the end of study, all animals were sacrificed. […] Lipid content was examined in liver and aorta. And liver index was also determined.
The body weight was between 1.8-2.0 kg. The animals were quarantined for 5-10 days with normal diet before study.
Animals were randomly divided into 5 groups including vehicle control, high dose, medium dose, low dose and positive control group. Ten to 14 rabbits were in one group. Each rabbit was fed with 30 gram of high fat diet followed by 120 gram of normal diet with free access to water.
The frequency of dosing was once a week. Dose was 80, 40, 20 mg/kg body weight respectively. Drug was given by intravenous injection via auricular vein with the volume of 5 mL.
5.1 body weight: body weight of each rabbit was determined once a week.
Resulted blood samples were kept still for 2 hours and then spin with 4,000 rpm for 10 min.
Abdomen cavity was opened. Whole blood was taken from heart. Heart was harvested along with 7 cm of aorta.
The aorta was dissected for 0.5 cm from aortic arch, split longitudinally and then kept in cryo-preservation tube for later lipid analysis. One piece of this sample was fixed in formalin for further pathological analysis.
The weight of liver was determined immediately. Two pieces of specimen were cut from hepatic lobe.
Resulted blood samples were kept still for 2 hours.
The aorta was dissected and opened for 7.5 cm from aortic arch longitudinally. Pictures were taken and atherosclerosis changing was analyzed.

The subject of data set [4] is Influenza A/Weiss/43 H1N1 in MDCK cells. Description: microbe, parasite or virus in culture. The data set is classed as cell-based.
For the next data set, the system named is Influenza H1N1 A/WSN/33. The data set is classed as in vivo, BALB/c mice.
Another data set has as its system 3T3-L1 adipocytes. The experiment in a line: Glucose uptake assay. The data set is classed as cell-based. As to the method:
Study Protocol • 1. 3T3-L1 fibroblasts were cultured in DMEM containing 25 mM glucose and 10% bovine calf serum at 37 °C with 5% CO2. • 2. 3T3-L1 fibroblasts were differentiated into adipocytes 2 days post confluent with the same DMEM medium containing 1 ug/ml insulin (Sigma-Aldrich), 1 uM dexamethasone (Sigma-Aldrich), and 0.5 mM isobutyl-1-methylxanthine (Sigma-Aldrich). • 3. Media were replaced with DMEM containing 10% FBS and 1 ug/ml insulin and culture 2 days. • 4. Seed 1×10^5 3T3-L1 adipocytes to 96 wells cell culture plate (DMEM, 10% FBS, 1% PS, 1 ug/ml insulin) • 5. Before experiments, adipocytes were incubated in serum free medium for starvation overnight. • 6. Dilute each sample 100 folds (2 ul primal solution to 198 ul buffer) in corresponding buffer. Add 2 ul of sample primal solution, 100 folds diluted solution and buffer to 198 ul KRPH buffer. • 7. 3T3-L1 adipocytes were washed with KRPH buffer (5 mM Na2HPO4, 20 mM HEPES, pH 7.4, 1 mM MgSO4.1 mM CaCl2, 136 mM NaCl, […], and 1% BSA) three times, Add 90 ul/well KRPH containing human insulin and samples to assay plate, incubate for 30 min at 37[…] and 5% CO2. • 8. Add 10 ul KRPH containing 0.25 uCi 1-[3H]-2-deoxyglucose/well and 50 umol/l 2-deoxyglucose and Incubate 10 min in 95% air/5% CO2 at 37[…] • 9. The transport was stopped by rinsing the cells with cold PBS containing 10 mM glucose for three times. • 10. The adipocytes were lysed in 50 ul 10% KOH for 5 min • 11. Then the aliquots were subjected to scintillation counting using TriCap.

The mark [5] stands for this setting: H1N1 + Oseltamivir, dose printed 0.2/0.4 ml/mouse.

Like-named read-outs stand apart in the source and are kept apart here. A value given as a limit tells only on which side of the number the result lay.

For `CC(C)c1c(C(=O)Nc2ccccc2)c(-c2ccccc2)c(-c2ccc(F)cc2)n1CC[C@@H](O)C[C@@H](O)CC(=O)O` [Atorvastatin, reference compound], the “lipid con. at dissected aorta” value in data set [1] (Atorvastatin group (n = 4), triglyceride content) was 0.0274 ± 0.006 µmol/mg. For the same molecule, the TC/HDL-C stood at 1.844 in data set [1] (Wk 0 (start of high fat diet)), 4.511 in data set [1] (Wk 10 (before Atorvastatin administration)) and 6.811 in data set [1] (Wk 18 (end of Atorvastatin administration)). Moreover, in data set [2] (40 mg/kg, 16 weeks treatment), the liver weight entry was “significantly reduced”. Besides, the TC net change result in data set [2] (16 week treatment) is on record as “not reduce the TC net change”. Also, the “net change of LDL” value in data set [2] (16 week treatment) is “no significant difference in net change of LDL”. Moreover, the “plaque area and percentage of plaque area in total inner vascular area” value in data set [2] (16 weeks) is “mild trend to decrease percentage of plaque area”. In addition, the “plaque lesion area of aorta” value in data set [2] (16 weeks treatment, atorvastatin 40 mg/kg) is on record as “did not affect the plaque lesion area of aorta”.
As for `CC(C)c1c(C(=O)Nc2ccccc2)c(-c2ccccc2)c(-c2ccc(F)cc2)n1CC[C@@H](O)C[C@@H](O)CC(=O)O` [Liptor, reference compound], the “calcification, pathological examination” value in data set [3] is recorded as “one animal with calcification”.
On to `CCOC(=O)C1=C[C@@H](OC(CC)CC)[C@H](NC(C)=O)[C@@H](N)C1` [Osletamivir, Oseltamivir], for which the EC50 in data set [4] (A/Weiss/43 H1N1, MDCK cells, read-out: EC50) came to 890 nM. Further, the EC50 in data set [4] (Influenza A/Weiss/43 H1N1 in MDCK cells, MTT after 72 hours, positive control, read-out: anti H1N1 EC50s) turned out to be 890 nM. For the same molecule, the “mice survived to the end of experiment” value with Influenza H1N1 A/WSN/33 (1 mg/kg orally twice daily for 8 days) is 4 out of 5. Besides, in the data set on Influenza H1N1 A/WSN/33 (setting [5]), the “Mean day to death ± S.D.” value is over 14 ± 0.0 days and the Survivor/total is 4/4. In the data set with Influenza H1N1 A/WSN/33 (mouse, in vivo), this molecule gave a body weight drop of under 15%.
With insulin, the EC50 is 7.08 nM in the data set on 3T3-L1 adipocytes (dose response AFOD 1 / AFOD RAAS 109, run N1); 8.64 nM in the data set with 3T3-L1 adipocytes (dose response AFOD 1 / AFOD RAAS 109, run N2); 3.09 nM with 3T3-L1 adipocytes (dose response AFOD RAAS 107 / AFOD KH, run N1); 10.2 nM with 3T3-L1 adipocytes (dose response AFOD RAAS 107 / AFOD KH, run N2); 4.17 nM with 3T3-L1 adipocytes (dose response AFOD RAAS 107 / AFOD KH, run N3).
